In US20260364184A1, “COMPOUND BASED ON OXOISOINDOLINYL-SUBSTITUTED TETRAHYDROPYRIMIDINE-DIONE AND USE THEREOF” (GLUETACS THERAPEUTICS (SHANGHAI) CO., LTD., priority 2023, published 2026):
Where two headings read alike, the source gives them in different places.

Key:
[1] = test system: Human Multiple myeloma cell line (MM.1S); assay: Inhibition of MM.1S cell proliferation (CellTiter luminescent viability); assay type: cell-based; settings: Homo sapiens, MM1.S, 96 hours; for inhibition at 0.01 µM: 10 nM, read-out: Inhibition Rate at 10 nM (%); for inhibition at 0.5 µM: 500 nM, read-out: Inhibition Rate at 500 nM (%)
Method: (§1) The tumor cells used herein were cultured in a cell culture medium listed in table 3 at 37 °C in an incubator with 5% CO2. Prior to experimentation, all cell lines used were correctly identified by STR profiling, and tested negative for mycoplasma contamination using a mycoplasma detection kit through routine screenings.
(§2) The IC50 values of the compounds of the present disclosure (including the compounds in Table 1, Table 2, and Examples 1-468) were determined using the CellTiter-Meiluncell Luminescent Cell Viability Assay Kit from Dalian Meilun Biotech Co., Ltd. The detailed procedure is as follows: Tumor cells were seeded in 96-well cell culture plates at the densities specified in Table 4. On the following day, the test compounds of the present disclosure were subjected to serial dilution. The dilution can be performed according to one of the following two methods: • (1) The first dilution method: The test compounds of the present disclosure (including the compounds in Table 1, Table 2, and Examples 1-468) were subjected to 5-fold serial dilutions starting from a highest concentration of 2000 μM, resulting in a total of 9 concentrations from high to low (2000, 400, 80, 16, 3.2, 0.64, 0.128, 0.0256, 0.00512 μM). Subsequently, 0.5 μL of the test compound dilution was transferred into the 96-well plate containing the cells, with each well containing 100 μL of cell culture medium. […] Into the 96-well plate, the diluted test compounds and corresponding detection reagents were added, resulting in final test compound concentrations of 500 nM and 10 nM, respectively. The experimental procedure is described below using the diluted 2 μM test compound as an example.
(§3) 0.5 μL of the aforementioned diluted compound of the present disclosure (including the compounds in Table 1, Table 2, and Examples 1-468) was added to the seeded cells in 100 μL of medium, yielding a final test compound concentration of 10 nM. After the cells were treated with the compounds of the present disclosure for a specified period, the cell viability assay reagent was added to the culture medium according to the kit's instructions to determine cell viability. […] All controls were treated using the same procedure as the compounds of the present disclosure. The growth inhibition curves for the compounds of the present disclosure were plotted using Prism GraphPad software, and the IC50 values were calculated therefrom.

[2] = test system: Human myeloid monocytic leukemia cell line (MV-4-11); assay: Inhibition of MV-4-11 cell proliferation (CellTiter luminescent viability); assay type: cell-based; settings: Homo sapiens, MV4-11; for inhibition at 0.01 µM: read-out: Inhibition Rate at 10 nM (%); for inhibition at 0.5 µM: read-out: Inhibition Rate at 500 nM (%)
Method: as §1, §2, §3

[3] = Table IL1, BCR-ABL inhibitor-based
[4] = Table IB2, ALK inhibitor-based, MV-4-11, 10 nM, 96 hours
[5] = Table IB2, ALK inhibitor-based, MV-4-11, 500 nM, 96 hours
[6] = Table IL2, BCR-ABL inhibitor-based, MV-4-11, 10 nM, 96 hours
[7] = Table IL2, BCR-ABL inhibitor-based, MV-4-11, 500 nM, 96 hours

Q: How did the inhibition at 0.01 µM ([1]; Table IG1, FAK inhibitor-based) turn out when CNC(=O)c1ccccc1Nc1cc(Nc2cc(C)c(C3CCN(Cc4ccc5c(c4)CN(N4CCC(=O)NC4=O)C5=O)CC3)cc2OC(C)C)ncc1C(F)(F)F [GT-07663, 2-((2-((4-(1-((2-(2,4-dioxotetrahydropyrimidin-1(2H)-yl)-1-oxoisoindolin-5-yl)methyl)piperidin-4-yl)-2-isopropoxy-5-methylphenyl)amino)-5-(trifluoromethyl)pyridin-4-yl)amino)-N-methylbenzamide] was run?
A: 5 to 10%

Q: And the inhibition at 0.5 µM ([1]; Table IG1, FAK inhibitor-based)?
A: 40 to 60%

Q: Which inhibition at 0.01 µM ([2]; MV-4-11, 10 nM) does the source give for C[C@@H]1CNC(=O)c2cc3ccc(C(=O)Nc4cnn(Cc5ccc(N6CCN(CC7CCN(c8ccc9c(c8)C(=O)N(N8CCC(=O)NC8=O)C9=O)CC7)CC6)cc5)c4)nc3n21 [GT-08255, (R)—N-(1-(4-(4-((1-(2-(2,4-dioxotetrahydropyrimidin-1(2H)-yl)-1,3-dioxoisoindolin-5-yl)piperidin-4-yl)methyl)piperazin-1-yl)benzyl)-1H-pyrazol-4-yl)-9-methyl-6-oxo-6,7,8,9-tetrahydropyrido[3′,2′: 4,5]pyrrolo[1,2-a]pyrazine-2-carboxamide] here?
A: -15 to -5%

Q: And the inhibition at 0.5 µM ([2]; MV-4-11, 500 nM)?
A: 50 to 70%

Q: How did the inhibition at 0.01 µM ([1]; Table IJ1, Tau inhibitor-based) turn out when O=C1CCN(N2C(=O)c3ccc(CN4CCN(c5ccc(-c6ccc7c8cnccc8n(CC(F)(F)F)c7c6)cn5)CC4)cc3C2=O)C(=O)N1 [GT-08544, 2-(2,4-dioxotetrahydropyrimidin-1(2H)-yl)-5-((4-(5-(5-(2,2,2-trifluoroethyl)-5H-pyrido[4,3-b]indol-7-yl)pyridin-2-yl)piperazin-1-yl)methyl)isoindoline-1,3-dione] was run?
A: 30 to 40%

Q: What about the inhibition at 0.5 µM ([1]; Table IJ1, Tau inhibitor-based) of the same compound?
A: 40 to 50%

Q: Which inhibition at 0.01 µM [1, 3] does the source give for O=C1CCN(N2C(=O)c3ccc(CN4CCN(C5CCN(c6ncc(C(=O)Nc7ccc(OC(F)(F)Cl)cc7)cc6-c6cc[nH]n6)CC5)CC4)cc3C2=O)C(=O)N1 [GT-08227, N-(4-(chlorodifluoromethoxy)phenyl)-6-(4-(4-((2-(2,4-dioxotetrahydropyrimidin-1(2H)-yl)-1,3-dioxoisoindolin-5-yl)methyl)piperazin-1-yl)piperidin-1-yl)-5-(1H-pyrazol-3-yl)nicotinamide] here?
A: 20 to 30%

Q: And the inhibition at 0.5 µM [1, 3]?
A: 20 to 30%

Q: What does the source list for COc1cc(N2CCC(N(C)CC3CCN(c4cccc5c4C(=O)N(N4CCC(=O)NC4=O)C5=O)CC3)CC2)ccc1Nc1ncc(Cl)c(Nc2ccccc2P(C)(C)=O)n1 [GT-08254, 4-(4-(((1-(4-((5-chloro-4-((2-(dimethylphosphoryl)phenyl)amino)pyrimidin-2-yl)amino)-3-methoxyphenyl)piperidin-4-yl)(methyl)amino)methyl)piperidin-1-yl)-2-(2,4-dioxotetrahydropyrimidin-1(2H)-yl)isoindoline-1,3-dione]?
A: inhibition at 0.01 µM [2, 4]: 45 to 55%; inhibition at 0.5 µM [2, 5]: 60 to 80%

Q: For CN(c1nccnc1CNc1nc(Nc2ccc(N3CCC(N4CCN(Cc5ccc6c(c5)CN(N5CCC(=O)NC5=O)C6=O)CC4)CC3)cc2)ncc1C(F)(F)F)S(C)(=O)=O [GT-08138, N-(3-(((2-((4-(4-(4-((2-(2,4-dioxotetrahydropyrimidin-1(2H)-yl)-1-oxoisoindolin-5-yl)methyl)piperazin-1-yl)piperidin-1-yl)phenyl)amino)-5-(trifluoromethyl)pyrimidin-4-yl)amino)methyl)pyrazin-2-yl)-N-methylmethanesulfonamide], which inhibition at 0.01 µM ([2]; Table IG2, FAK inhibitor-based, MV-4-11, 10 nM, 96 hours) is on record?
A: 20 to 30%

Q: What about the inhibition at 0.5 µM ([2]; Table IG2, FAK inhibitor-based, MV-4-11, 500 nM, 96 hours) of the same compound?
A: 80 to 100%

Q: Which inhibition at 0.01 µM [1, 3] does the source give for Cc1ccc(C(=O)Nc2ccc(N3CCN(CC4CCN(c5ccc6c(c5)C(=O)N(N5CCC(=O)NC5=O)C6=O)CC4)CC3)c(C(F)(F)F)c2)cc1C#Cc1cnc2cccnn12 [GT-08354, N-(4-(4-((1-(2-(2,4-dioxotetrahydropyrimidin-1(2H)-yl)-1,3-dioxoisoindolin-5-yl)piperidin-4-yl)methyl)piperazin-1-yl)-3-(trifluoromethyl)phenyl)-3-(imidazo[1,2-b]pyridazin-3-ylethynyl)-4-methylbenzamide] here?
A: 15 to 20%

Q: What about the inhibition at 0.5 µM [1, 3] of the same compound?
A: 20 to 30%

Q: How did the inhibition at 0.01 µM [2, 6] turn out when Cc1ccc(C(=O)Nc2ccc(N3CCC(N(C)Cc4ccc5c(c4)C(=O)N(N4CCC(=O)NC4=O)C5=O)CC3)c(C(F)(F)F)c2)cc1C#Cc1cnc2cccnn12 [GT-08221, N-(4-(4-(((2-(2,4-dioxotetrahydropyrimidin-1(2H)-yl)-1,3-dioxoisoindolin-5-yl)methyl)(methyl)amino)piperidin-1-yl)-3-(trifluoromethyl)phenyl)-3-(imidazo[1,2-b]pyridazin-3-ylethynyl)-4-methylbenzamide] was run?
A: -5 to 0%

Q: And the inhibition at 0.5 µM [2, 7]?
A: 50 to 60%

Q: How did the inhibition at 0.01 µM ([1]; Table IG1, FAK inhibitor-based) turn out when CNC(=O)c1ccccc1Nc1cc(Nc2cc(C)c(C3CCN(Cc4ccc5c(c4)C(=O)N(N4CCC(=O)NC4=O)C5=O)CC3)cc2OC(C)C)ncc1C(F)(F)F [GT-07664, 2-((2-((4-(1-((2-(2,4-dioxotetrahydropyrimidin-1(2H)-yl)-1,3-dioxoisoindolin-5-yl)methyl)piperidin-4-yl)-2-isopropoxy-5-methylphenyl)amino)-5-(trifluoromethyl)pyridin-4-yl)amino)-N-methylbenzamide] was run?
A: 20 to 30%

Q: And the inhibition at 0.5 µM ([1]; Table IG1, FAK inhibitor-based)?
A: 40 to 60%

Q: Which results are given for Cc1ccc(C(=O)Nc2ccc(N3CCN(Cc4ccc5c(c4)CN(N4CCC(=O)NC4=O)C5=O)CC3)c(C(F)(F)F)c2)cc1C#Cc1cnc2cccnn12 [GT-08218, N-(4-(4-((2-(2,4-dioxotetrahydropyrimidin-1(2H)-yl)-1-oxoisoindolin-5-yl)methyl)piperazin-1-yl)-3-(trifluoromethyl)phenyl)-3-(imidazo[1,2-b]pyridazin-3-ylethynyl)-4-methylbenzamide]?
A: inhibition at 0.01 µM [2, 6]: 5 to 10%; inhibition at 0.5 µM [2, 7]: 80 to 100%

Q: What does the source list for Cc1ccc(C(=O)Nc2ccc(CN3CCN(Cc4ccc5c(c4)C(=O)N(N4CCC(=O)NC4=O)C5=O)CC3)c(C(F)(F)F)c2)cc1C#Cc1cnc2cccnn12 [GT-08217, N-(4-((4-((2-(2,4-dioxotetrahydropyrimidin-1(2H)-yl)-1,3-dioxoisoindolin-5-yl)methyl)piperazin-1-yl)methyl)-3-(trifluoromethyl)phenyl)-3-(imidazo[1,2-b]pyridazin-3-ylethynyl)-4-methylbenzamide]?
A: inhibition at 0.01 µM [2, 6]: 10 to 15%; inhibition at 0.5 µM [2, 7]: 80 to 100%

Q: How did the inhibition at 0.01 µM [2, 4] turn out when COc1cc(N2CCC(N(C)CC3CCN(c4ccc5c(c4)C(=O)N(N4CCC(=O)NC4=O)C5=O)CC3)CC2)ccc1Nc1ncc(Cl)c(Nc2ccccc2P(C)(C)=O)n1 [GT-08253, 5-(4-(((1-(4-((5-chloro-4-((2-(dimethylphosphoryl)phenyl)amino)pyrimidin-2-yl)amino)-3-methoxyphenyl)piperidin-4-yl)(methyl)amino)methyl)piperidin-1-yl)-2-(2,4-dioxotetrahydropyrimidin-1(2H)-yl)isoindoline-1,3-dione] was run?
A: 15 to 20%

Q: And the inhibition at 0.5 µM [2, 5]?
A: 45 to 55%

Q: For COc1cc(N2CCC(N3CCN(CC4CCN(c5ccc6c(c5)C(=O)N(N5CCC(=O)NC5=O)C6=O)CC4)CC3)CC2)ccc1Nc1ncc(Cl)c(Nc2ccccc2P(C)(C)=O)n1 [GT-08251, 5-(4-((4-(1-(4-((5-chloro-4-((2-(dimethylphosphoryl)phenyl)amino)pyrimidin-2-yl)amino)-3-methoxyphenyl)piperidin-4-yl)piperazin-1-yl)methyl)piperidin-1-yl)-2-(2,4-dioxotetrahydropyrimidin-1(2H)-yl)isoindoline-1,3-dione], which inhibition at 0.01 µM [2, 4] is on record?
A: 30 to 45%

Q: What about the inhibition at 0.5 µM [2, 5] of the same compound?
A: 60 to 80%
